Assay results from patent US5035877A, “Non-ionic contrast media from ionic contrast media” (Cook Imaging Corporation, priority 1990, dated 1991).

Assays:
Mice (CD-1) = assay: Estimated i.v. LD50, mice (systemic toxicity); assay type: in vivo; conditions: 300 mg I/ml, 37° C., injection rate 1 ml/min
Procedure: (§1) Compounds VIII and XVI were tested from stability, solubility, osmolality, viscosity and systemic toxicity.
(§2) *All at 300 mg I/ml concentration and 37° C. Injection rates 1
(§3) ml/min in mice and 5 ml/min in rats.
(§4) °Ref. Salvesen, S. in Acta Radiol. Suppl. 362, p. 73, 1980

Rats (Lewis) = assay: Estimated i.v. LD50, rats (systemic toxicity); assay type: in vivo; conditions: 300 mg I/ml, 37° C., injection rate 5 ml/min
Procedure: as §1, §2, §3, §4

[1] = must be dispensed lyophilized and reconstituted prior to use; cited from earlier work
Osmolality = assay type: physicochemical; conditions: for osmolality (in words): compared with existing compounds
Procedure: as §1, §2

Viscosity = assay type: physicochemical; conditions: for viscosity (in words): compared with existing compounds
Procedure: as §1, §2

Stability = assay type: physicochemical; conditions: compared with existing compounds
Procedure: as §1

Solubility = assay type: physicochemical; conditions: compared with existing compounds
Procedure: as §1

[2] = Systemic toxicity (conventional tests, in words); assay type: in vivo; conditions: compared with existing compounds
Procedure: as §1

Row | SMILES | Estimated i.v. LD50 (Mice (CD-1)) | Estimated i.v. LD50 (Rats (Lewis)) | hydrolytic stability (in words) [1] | osmolality (in words) (Osmolality) | viscosity (in words) (Viscosity) | stability (in words) (Stability) | solubility (in words) (Solubility) | systemic toxicity (in words) [2] | Osmolality (Osmolality; 300 mg I/ml, 37° C.) [mOsm/kg] | Viscosity (Viscosity; 300 mg I/ml, 37° C.) [cps]
1 | C[C@H](O)C(=O)Nc1c(I)c(C(=O)NC(CO)CO)c(I)c(C(=O)NC(CO)CO)c1I [Iopamidol] | 17-18 gI/kg | 12.2-13 gI/kg |  |  |  |  |  |  |  | 
2 | CC(=O)N(CC(O)CO)c1c(I)c(C(=O)NCC(O)CO)c(I)c(C(=O)NCC(O)CO)c1I (centres unmarked) [Iohexol] | 16-17 gI/kg | 13.5-15 gI/kg |  |  |  |  |  |  |  | 
3 | CC(=O)Nc1c(I)c(C(=O)N[C@H]2C(O)O[C@H](CO)[C@@H](O)[C@@H]2O)c(I)c(N(C)C(C)=O)c1I (some centres unmarked) [Metrizamide] |  |  | hydrolytic instability |  |  |  |  |  |  | 
4 | CNC(=O)c1c(I)c(C(=O)N[C@@H](CO)[C@H](O)CO)c(I)c(N(CC(O)CO)C(C)=O)c1I (relative stereo) [XVI, 5-(N-2,3-Dihydroxypropylacetamido)-2,4,6-triiodo-N-methyl-N'-(1,3,4-trihydroxy-erythro-but-2-yl) isophthalamide] | 12-13 gI/kg | 13.5-14 gI/kg |  | substantially reduced osmolality | comparable properties in the other categories | comparable properties in the other categories | comparable properties in the other categories | comparable properties in the other categories |  | 
5 | CC(=O)N(CC(O)CO)c1c(I)c(C(=O)NCCO)c(I)c(C(=O)NCC(O)CO)c1I (centres unmarked) [VIII, 5-(N-2,3-dihydroxypropylacetamido)-2,4,6-triiodo-N-(2,3-dihydroxypropyl)-N'-(2-hydroxyethyl)-isophthalamide] | 16-17 gI/kg | 14-16.5 gI/kg |  | substantially reduced osmolality | comparable properties in the other categories | comparable properties in the other categories | comparable properties in the other categories | comparable properties in the other categories | 560 | 5.3
6 | COCC(=O)Nc1c(I)c(C(=O)NCC(O)CO)c(I)c(C(=O)N(C)CC(O)CO)c1I (centres unmarked) [Iopromide] | 11.5-13.0 gI/kg | 10-11.5 gI/kg |  |  |  |  |  |  |  | 
